{"source": "patent EP1555271A1", "about": "“Peptides useful for diagnosis and therapy of TRP-2+ and/or TRP-1+ tumors” (Deutsches Krebsforschungszentrum Stiftung des öffentlichen …, priority 2004, dated 2005)", "molecular_target": "HLA-DRB1*0301 (Homo sapiens, UniProt P01903+P01911, A100K/A102G/A103R/A169T/F55Y/I96L/K41T/L162R/M171V/P40S/Q125H/Q178H/Q39Y/R42S/S66N/T106N/T262R/W38E/Y61H)", "assay": "HLA-DR competitive binding assay on T2.DR3 cells (biotinylated TT829-843 reporter peptide, Europium sandwich immunoassay)", "details": "dose necessary to reduce TT reporter peptide binding to 50%, 10 µM TT829-843 reporter, 180 min", "note": "Ends that are not written are not given here."}
{"sequence": "HLLCLERDLQRLIGN [TRP-2223-237, HLLCLERDLQRLIGN]", "values": [{"measurement": "IC50", "result": 7.5, "unit": "µM"}]}
